Assay results from US6818663B2, “Diaminothiazoles” (Hoffmann-La Roches, priority 2002, dated 2004).

Assays:
[1] = tested on: HCT116, a colorectal carcinoma cell line; test: Tetrazolium dye proliferation assay (MTT assay); type: cell-based; conditions: Homo sapiens, HCT-116, HCT116 cells, inhibition of cell proliferation
Procedure: Proliferation was evaluated by the tetrazolium dye assay according to the procedure of Denizot and Lang (Denizot, F. and Lang, R. J Immunol Methods 1986, 89, 271-277). The cell line used was HCT116, a colorectal carcinoma cell line obtained from the American Type Cell Culture Collection (ATCC; Rockville, Md.). The cells were grown in McCoy's 5A medium supplemented with 10% FCS and L-glutamine.
Cells were plated at the appropriate seeding density to give logarithmic growth over the course of the assay in a 96-well tissue culture plate. Plates were incubated overnight at 37° C. in a humidified incubator with 5% CO2. The next day, test compounds were serially diluted to four times the final concentration in the appropriate medium containing 1.2% DMSO. One-fourth final volume of each dilution was added in duplicate to the plates containing cells. The same volume of 1.2% DMSO in medium was added to a row of “control wells” such that the final concentration of DMSO in each well was 0.3%. Wells to which no cells were added served as the “blank.” Wells to which no inhibitor was added served as “no inhibitor control.” The plates were) returned to the incubator, and at set time points (determined by their growth curves) plates were analyzed as described below.
3-(4,5-dimethylthiazole-2-yl)-2,5-diphenyl-2H-tetrazolium bromide (thiazolyl blue; MTT; Sigma) was added to each well to yield a final concentration of 1 mg/ml. Plates were returned to the incubator for 2.5-3 hours at 37° C. The MTT-containing medium was removed and the resulting formazan metabolite was solubilized in 100% ethanol with shaking for 15 minutes at room temperature. Absorbance readings were taken in a microtiter plate reader (Dynatech and Molecular Devices plate readers were used interchangeably) at a wavelength of 570 nm with a 650 nm reference. Percent inhibition (% INH) is calculated by subtracting the absorbance of the blank well from all wells, then subtracting the ratio of the average absorbance of each test duplicate (SAVE) by the average of the controls (CAVE) from 1.00. The final number is then multiplied by 100 (% INH=(1.00−SAVE/CAVE)×100). The concentration at which 50% inhibition of cell proliferation is obtained (the IC50) is determined from the linear regression of a plot of the logarithm of the concentration versus percent inhibition.

[2] = molecular target: human cyclin B-CDK1 (Homo sapiens, UniProt P06493); test: FlashPlate kinase assay, cyclin B-CDK1, Rb substrate; type: biochemical; conditions: recombinant cyclin B-CDK1, Rb phosphorylation, 1 μM ATP
Sequence of human cyclin B-CDK1 (P06493 whole entry): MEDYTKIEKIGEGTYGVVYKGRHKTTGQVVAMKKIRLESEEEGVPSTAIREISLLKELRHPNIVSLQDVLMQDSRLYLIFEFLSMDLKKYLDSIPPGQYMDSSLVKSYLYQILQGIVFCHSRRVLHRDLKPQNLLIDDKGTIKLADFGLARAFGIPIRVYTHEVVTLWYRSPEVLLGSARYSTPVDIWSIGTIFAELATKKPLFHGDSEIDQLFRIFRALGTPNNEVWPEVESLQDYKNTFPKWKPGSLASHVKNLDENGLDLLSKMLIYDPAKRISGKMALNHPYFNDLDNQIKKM
Sequence of human cyclin B-CDK1 (P14635 whole entry partner): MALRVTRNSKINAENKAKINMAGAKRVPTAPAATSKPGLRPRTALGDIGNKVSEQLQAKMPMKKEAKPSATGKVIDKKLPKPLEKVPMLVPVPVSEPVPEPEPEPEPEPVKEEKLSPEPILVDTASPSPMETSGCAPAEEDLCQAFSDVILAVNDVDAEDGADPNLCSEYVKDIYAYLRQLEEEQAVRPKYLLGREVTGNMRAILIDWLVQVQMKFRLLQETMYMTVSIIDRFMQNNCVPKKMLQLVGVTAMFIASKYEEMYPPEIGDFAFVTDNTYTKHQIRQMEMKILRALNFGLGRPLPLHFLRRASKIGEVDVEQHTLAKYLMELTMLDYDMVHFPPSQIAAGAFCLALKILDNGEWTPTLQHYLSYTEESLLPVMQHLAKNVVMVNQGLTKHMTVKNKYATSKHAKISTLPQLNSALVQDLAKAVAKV
Procedure: (§1) To determine inhibition of Cdk4, Cdk2 and Cdk1 activity, kinase assays were conducted using FlashPlate™ assays (NEN™-Life Science Products). FlashPlate assays were performed using recombinant human cyclin B-CDK1, human cyclin E-CDK2 or human cyclin D1-CDK4 complexes. GST-cyclinE (GST-cycE), CDK2, GST-cyclinB (GST-cycB), CDK1, GST-CDK4 and cyclin D1 (cycD1) cDNA clones in baculovirus vectors were provided by Dr. W. Harper at the Baylor College of Medicine, Houston, Tex. Proteins were co-expressed in High Five™ insect cells and the complex was purified on glutathione Sepharose resin (Pharmacia, Piscataway, N.J.) as previously described (Harper, J. W. et al. Cell 1993, 75, 805-816). A 6×-Histidine tagged truncated form of retinoblastoma (Rb) protein (amino acid 386-928) was used as the substrate for the cycD1-CDK4, cycB-CDK1 and the cycE-CDK2 assays (the expression plasmid was provided by Dr. Veronica Sullivan, Department of Molecular Virology, Roche Research Centre, Welwyn Garden City, United Kingdom). The Rb protein is a natural substrate for phosphorylation by CDK4, CDK2 and CDK1 (see Herwig and Strauss Eur. J. Biochem. Vol. 246 (1997) pp. 581-601 and the references cited therein).
(§2) The expression of the 62 Kd protein was under the control of an IPTG inducible promoter in an M15 E. coli strain. Cells were lysed by sonication and purification was carried out by binding lysates at pH 8.0 to a Ni-chelated agarose column pretreated with 1 mM imidazole. The resin was then washed several times with incrementally decreasing pH buffers to pH 6.0, and eluted with 500 mM imidazole. Eluted protein was dialysed against 20 mM HEPES pH 7.5, 30% glycerol, 200 mM NaCl, and 1 mM DTT. Purified Rb fusion protein stocks were quantitated for protein concentration, aliquoted, and stored at −70° C.
(§3) For all three kinase assays reported herein, 96-well FlashPlates were coated with Rb protein at 10 μg/ml, using 100 μl per well. Plates were incubated at 4° C. overnight or at room temperature for 3 hours on a shaker. To control for nonspecific phosphorylation, one row of wells was coated with 100 μl/well coating buffer (20 mM HEPES, 0.2 M NaCl). Plates were then washed twice with wash buffer (0.01% Tween 20 in phosphate-buffered saline). Compounds to be tested (“test compounds”) were added to the wells at 5×final concentration. Reactions were initiated by immediate addition of 40 μl reaction mix (25 mM HEPES, 20 mM MgCl2, 0.002% Tween 20, 2 mM DTT, 1 μM ATP, 4 nM ^33P-ATP) and a sufficient amount of enzyme to give counts that were at least 10-fold above background. Plates were incubated at room temperature on a shaker for 30 minutes. Plates were washed four times with the wash buffer, sealed, and counted on the TopCount scintillation counter (Packard Instrument Co., Downers Grove, Ill.]. The percent inhibition of Rb phosphorylation, which is a measure of the inhibition of CDK activity, was determined according to the following formula: [formula]
(§4) where “test compound” refers to the average counts per minute of the test duplicates, “nonspecific” refers to the average counts per minute when no CyclinD/Cdk4, etc., was added, and “total” refers to the average counts per minute when no compound was added. The IC50 value is the concentration of test compound that reduces by 50% the protein-kinase induced incorporation of the radiolabel under the test conditions described.

[3] = molecular target: human cyclin D1-CDK4 (Homo sapiens, UniProt P11802); test: FlashPlate kinase assay, cyclin D1-CDK4, Rb substrate; type: biochemical; conditions: recombinant cyclin D1-CDK4, Rb phosphorylation, 1 μM ATP
Sequence of human cyclin D1-CDK4 (P11802 whole entry): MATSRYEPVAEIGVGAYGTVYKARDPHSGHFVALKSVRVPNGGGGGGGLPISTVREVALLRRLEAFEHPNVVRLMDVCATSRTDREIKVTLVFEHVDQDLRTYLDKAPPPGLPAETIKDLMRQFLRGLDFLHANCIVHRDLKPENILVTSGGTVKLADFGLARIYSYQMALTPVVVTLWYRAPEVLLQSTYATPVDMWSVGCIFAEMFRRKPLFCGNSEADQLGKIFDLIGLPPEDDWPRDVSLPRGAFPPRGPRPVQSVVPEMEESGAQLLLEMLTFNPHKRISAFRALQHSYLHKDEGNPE
Sequence of human cyclin D1-CDK4 (P24385 whole entry partner): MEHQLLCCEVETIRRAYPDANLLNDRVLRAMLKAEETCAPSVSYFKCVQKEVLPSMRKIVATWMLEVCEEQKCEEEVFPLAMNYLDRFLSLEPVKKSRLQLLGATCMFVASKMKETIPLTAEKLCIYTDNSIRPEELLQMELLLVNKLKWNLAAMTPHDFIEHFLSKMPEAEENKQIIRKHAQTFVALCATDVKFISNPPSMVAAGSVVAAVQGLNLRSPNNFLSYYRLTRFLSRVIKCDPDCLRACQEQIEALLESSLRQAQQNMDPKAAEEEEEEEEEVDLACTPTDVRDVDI
Procedure: as §1, §2, §3, §4

[4] = molecular target: human cyclin E-CDK2 (Homo sapiens, UniProt P24941); test: FlashPlate kinase assay, cyclin E-CDK2, Rb substrate; type: biochemical; conditions: recombinant cyclin E-CDK2, Rb phosphorylation, 1 μM ATP
Procedure: as §1, §2, §3, §4

| IC50 [1] | IC50 [2] | IC50 [3] | IC50 [4] | SMILES |
| --- | --- | --- | --- | --- |
| 1560 nM | 980 nM | 49 nM | 499 nM | CCN1CCC(Oc2ccc(Nc3nc(N)c(C(=O)c4cccc(C)c4)s3)cc2)C1 (centres unmarked) [Example 83, [4-Amino-2-[4-(1-ethyl-pyrrolidin-3-yloxy)-phenylamino]-thiazol-5-yl]-m-tolyl-methanone] |
| 390 nM | 112 nM | 18 nM | 176 nM | CCCc1cc(C(=O)c2sc(Nc3ccc(OCCNCC)cc3)nc2N)ccc1O [Example 105, [4-Amino-2-[4-(2-ethylamino-ethoxy)-phenylamino]-thiazol-5-yl]-(4-hydroxy-3-propyl-phenyl)-methanone; Compound With Acetic Acid] |
| 280 nM | 241 nM | 39 nM | 234 nM | CCCc1cc(C(=O)c2sc(Nc3ccc(OC4CCCN(CC)C4)cc3)nc2N)ccc1O (centres unmarked) [Example 88, [4-Amino-2-[4-(1-ethyl-piperidin-3-yloxy)-phenylamino]-thiazol-5-yl]-(4-hydroxy-3-propyl-phenyl)-methanone; Compound With Acetic Acid] |
| 436 nM | 576 nM | 97 nM | 1380 nM | CC(COc1ccc(Nc2nc(N)c(C(=O)c3cccc(F)c3)s2)cc1)N(C)C (centres unmarked) [Example 38, [4-Amino-2-[4-(2-dimethylamino-propoxy)-phenylamino]-thiazol-5-yl]-(3-fluoro-phenyl)-methanone] |
| 1470 nM | 1080 nM | 23 nM | 1170 nM | CCc1cccc(C(=O)c2sc(Nc3ccc(OC4CCCN(CC)C4)cc3)nc2N)c1 (centres unmarked) [Example 79, [4-Amino-2-[4-(1-ethyl-piperidin-3-yloxy)-phenylamino]-thiazol-5-yl]-(3-ethyl-phenyl)-methanone] |
| 2920 nM | 376 nM | 66 nM | 4890 nM | Nc1nc(Nc2ccc(OCCN3CCCC3)cc2)sc1C(=O)c1ccc2c(c1)OCO2 [Example 57, [4-Amino-2-[4-(2-pyrrolidin-1-yl-ethoxy)-phenylamino]-thiazol-5-yl]-benzo[1,3]dioxol-5-yl-methanone] |
| 760 nM | 700 nM | 59 nM | 1150 nM | CCN1CCCC(Oc2ccc(Nc3nc(N)c(C(=O)c4cccc(F)c4)s3)cc2)C1 (centres unmarked) [Example 43, [4-Amino-2-[4-(1-ethyl-piperidin-3-yloxy)-phenylamino]-thiazol-5-yl]-(3-fluoro-phenyl)-methanone] |
| 685 nM | 660 nM | 21 nM | 1110 nM | CCNCCOc1ccc(Nc2nc(N)c(C(=O)c3cccc(CC)c3)s2)cc1 [Example 101, [4-Amino-2-[4-(2-ethylamino-ethoxy)-phenylamino]-thiazol-5-yl]-(3-ethyl-phenyl)-methanone; Compound With Acetic Acid] |
| 669 nM | 435 nM | 63 nM | 1040 nM | C[C@H](COc1ccc(Nc2nc(N)c(C(=O)c3cccc(F)c3)s2)cc1)N1CCCC1 [Example 41, (R)-[4-Amino-2-[4-(2-pyrrolidin-1-yl-propoxy)-phenylamino]-thiazol-5-yl]-(3-fluoro-phenyl)-methanone] |
| 859 nM | 298 nM | 57 nM | 496 nM | CCN1CCC(Oc2ccc(Nc3nc(N)c(C(=O)c4cccc(F)c4)s3)cc2)C1 (centres unmarked) [Example 42, [4-Amino-2-[4-(1-ethyl-pyrrolidin-3-yloxy)-phenylamino]-thiazol-5-yl]-(3-fluoro-phenyl)-methanone] |
| 517 nM | 248 nM | 62 nM | 889 nM | Nc1nc(Nc2ccc(OCCN3CCCC3)cc2)sc1C(=O)c1cccc(F)c1 [Example 118, [4-Amino-2-[4-(2-pyrrolidin-1-yl-ethoxy)-phenylamino]-thiazol-5-yl]-(3-fluoro-phenyl)-methanone; Compound With Acetic Acid] |
| 846 nM | 2760 nM | 70 nM | 1480 nM | CCc1cccc(C(=O)c2sc(Nc3ccc(OC[C@@H](C)N4CCCC4)cc3)nc2N)c1 [Example 67, (R)-[4-Amino-2-[4-(2-pyrrolidin-1-yl-propoxy)-phenylamino]-thiazol-5-yl]-(3-ethyl-phenyl)-methanone] |
| 520 nM | 126 nM | 32 nM | 892 nM | CN(C)CCOc1ccc(Nc2nc(N)c(C(=O)c3cccc(F)c3)s2)cc1 [Example 37, [4-Amino-2-[4-(2-dimethylamino-ethoxy)-phenylamino]-thiazol-5-yl]-(3-fluoro-phenyl)-methanone] |
| 1570 nM | 538 nM | 51 nM | 495 nM | CCc1cccc(C(=O)c2sc(Nc3ccc(OC4CCNC4)cc3)nc2N)c1 (centres unmarked) [Example 92, [4-Amino-2-[4-(pyrrolidin-3-yloxy)-phenylamino]-thiazol-5-yl)-(3-ethyl-phenyl)-methanone; Compound With Acetic Acid] |
| 1870 nM | 422 nM | 36 nM | 1660 nM | CCN(CC)CCOc1ccc(Nc2nc(N)c(C(=O)c3ccc(O)c(F)c3)s2)cc1 [Example 123, [4-Amino-2-[4-(2-diethylamino-ethoxy)-phenylamino]-thiazol-5-yl]-(3-fluoro-4-hydroxy-phenyl)-methanone] |
| 3000 nM | 338 nM | 29 nM | 3170 nM | CCNCCOc1ccc(Nc2nc(N)c(C(=O)c3ccc4c(c3)OCO4)s2)cc1 [Example 133, [4-Amino-2-[4-(2-ethylamino-ethoxy)-phenylamino]-thiazol-5-yl]-benzo[1,3]dioxol-5-yl-methanone] |
| 390 nM | 594 nM | 65 nM | 1270 nM | CN1CCC[C@H]1COc1ccc(Nc2nc(N)c(C(=O)c3cccc(F)c3)s2)cc1 [Example 44, (S)-[4-Amino-2-[4-(1-methyl-pyrrolidin-2-ylmethoxy)-phenylamino]-thiazol-5-yl]-(3-fluoro-phenyl)-methanone] |
